Test results reported in ChEMBL document CHEMBL1147847, “Evaluation of electronic, lipophilic and membrane affinity effects on antiproliferative activity of 5-substituted-2-(2,4-dihydroxyphenyl)-1,3,4-thiadiazoles against various human cancer cells” (2007).

How the values were obtained:
Format in all cases: functional
[1] = Antiproliferative activity against human HCV29T cells by SRB method
[2] = Antiproliferative activity against human SW707 cells by SRB method
[3] = tested on: T47D; assay: Antiproliferative activity against human T47D cells by SRB method
[4] = tested on: A549; assay: Antiproliferative activity against human A549 cells by SRB method

Row | SMILES | log(1/ID50) [1] | log(1/ID50) [2] | log(1/ID50) [3] | log(1/ID50) [4]
1 | OCCCc1nnc(-c2ccc(O)cc2O)s1 | -2.232 |  |  | 
2 | Oc1ccc(-c2nnc(-c3ccccc3)s2)c(O)c1 | -2.276 |  |  | 
3 | Oc1ccc(-c2nnc(-c3ccc(O)cc3O)s2)c(O)c1 | -2.045 |  |  | 
4 | Oc1ccc(-c2nnc(-c3ccc(-c4ccccc4)cc3)s2)c(O)c1 | -1.693 | -1.161 | -1.407 | -1.28
5 | Oc1ccc(-c2nnc(Cc3ccccc3)s2)c(O)c1 | -2.09 |  |  | 
6 | Oc1ccc(-c2nnc(Cc3cccc4ccccc34)s2)c(O)c1 | -1.923 | -1.926 | -1.629 | -1.865
7 | Oc1ccc(-c2nnc(-c3ccncc3)s2)c(O)c1 | <-2.567 |  |  | 
8 | Oc1ccc(-c2nnc(-c3cc4ccccc4s3)s2)c(O)c1 | -1.848 |  |  | 
9 | Oc1ccc(-c2nnc(COc3ccccc3Cl)s2)c(O)c1 | -2.061 | -2.037 | -1.494 | -2.108
10 | Oc1ccc(-c2nncs2)c(O)c1 | -2.25 |  |  | 
11 | CCOc1ccc(-c2nnc(-c3ccc(O)cc3O)s2)cc1 | -2.016 |  |  | 
12 | Cc1cccc(-c2nnc(-c3ccc(O)cc3O)s2)c1O | -1.745 | -1.746 | -1.273 | -1.292
13 | CCCCCCCCCCCCCCCc1nnc(-c2ccc(O)cc2O)s1 | <-2.393 |  |  | 
14 | Oc1ccc(-c2nnc(COc3ccc(F)cc3)s2)c(O)c1 | -1.999 |  |  | 
15 | Oc1ccc(-c2nnc(COc3ccc(Cl)cc3Cl)s2)c(O)c1 | -2.41 |  |  | 
16 | O=[N+]([O-])c1ccc(OCc2nnc(-c3ccc(O)cc3O)s2)cc1 | -2.429 |  |  | 

Row | SMILES | log(1/ID50) [1] | log(1/ID50) [2] | log(1/ID50) [3] | log(1/ID50) [4]
17 | Oc1ccc(-c2nnc(C(O)c3ccccc3)s2)c(O)c1 (stereo not drawn) | -1.857 | -2.027 | -2.148 | -2.139
18 | Oc1ccc(-c2nnc(CCCCc3nnc(-c4ccc(O)cc4O)s3)s2)c(O)c1 | -1.421 | -1.025 | <-2.354 | -1.42
19 | Oc1cc(O)cc(-c2nnc(-c3ccc(O)cc3O)s2)c1 | -2.182 |  |  | 
20 | Oc1ccc(-c2nnc(-c3ccccn3)s2)c(O)c1 | -2.152 |  |  | 
21 | CC(C)(C)c1ccc(-c2nnc(-c3ccc(O)cc3O)s2)cc1 | -1.057 | -1.139 | -1.088 | -1.593
22 | Oc1ccc(-c2nnc(-c3cccc4ccccc34)s2)c(O)c1 | -1.871 | -1.766 | -1.18 | -1.828
23 | Oc1ccc(-c2nnc(COc3cccc(F)c3)s2)c(O)c1 | -2.093 |  |  | 
24 | Oc1ccc(-c2nnc(-c3ccccc3Br)s2)c(O)c1 | -1.919 | -1.89 | -1.444 | -1.912
25 | Cc1cc(Cl)ccc1OCc1nnc(-c2ccc(O)cc2O)s1 | -1.816 | -2.117 | -1.402 | -1.964
26 | CCOc1cccc(-c2nnc(-c3ccc(O)cc3O)s2)c1 | -2.04 |  |  | 
27 | Oc1ccc(-c2nnc(-c3ccccc3O)s2)c(O)c1 | -2.083 |  |  | 
28 | COc1cccc(COc2nnc(-c3ccc(O)cc3O)s2)c1 | -0.522 | -1.18 | -0.958 | -1.379
29 | Oc1ccc(-c2nnc(-c3ccco3)s2)c(O)c1 | -2.178 | <-2.585 | -2.196 | <-2.585
30 | COc1cc(-c2nnc(-c3ccc(O)cc3O)s2)cc(OC)c1O | -2.027 |  |  | 
31 | CCOc1nnc(-c2ccc(O)cc2O)s1 | -2.305 |  |  | 
32 | COc1nnc(-c2ccc(O)cc2O)s1 | -2.343 |  |  | 
